Like-named read-outs stand apart in the source and are kept apart here.
Key:
[1] = Log P value test (partition coefficient in n-octane (oil) and water); assay type: physicochemical
From the text: The log P values are closely related to water solubility, membrane permeability, in vivo ADME process and affinity between the compound and the receptor, which play a key role in the process of the compound's penetration through the biofilm. The log P value was obtained by testing the partition coefficient of camptothecin drug in n-octane (oil) and water, the results are shown as follows: […]

[2] = system: A431; assay: Cell activity test of camptothecin chiral derivatives (MTS); assay type: cell-based
Experimental: (§1) Cell-based in vitro experiments are used to determine cell survival, cytotoxicity and programmed cell death induced by camptothecin drugs disclosed in the present invention.
(§2) The in vitro efficacy of camptothecin was determined by cell proliferation test. CellTiter 96® Aqueous One Solution Cell Proliferation Assay is commercially available (Promega Corp., Madison, WI). CellTiter96® Aqueous One Solution Cell Proliferation Assay (a) is a test reagent that can be used to measure the number of viable cells from cell proliferation and cytotoxicity tests by colorimetric assay. The reagent contains a new tetrazolium compound [3-(4, 5-dimethylthiazol-2-yl)-5-(3-carboxymethoxyphenyl)-2-(4-sulfophenyl)-2h-Tetrazolium, inner salt; MTS] and an electron coupling agent (phenazine ethosulfate; PES). PES has enhanced chemical stability, which allows it to be mixed with MTS to form stable solutions. MTS (Owen's reagent) is reduced by cellular organisms into a variety of colored methylate products, which can be dissolved directly in the medium. This transformation is most likely accomplished with the help of NADPH or NADH produced by dehydrogenase in metabolically active cells. For detection, appropriate amount of CellTiter96® Aqueous One Solution Reagent is added directly into the medium of culture plate hole, incubated for 1-4 hours, and the absorbance value of 490 nm is read with enzyme label instrument.
(§3) The amount of methylate detected at 490 nm is proportional to the number of live cells in the culture. Due to the dissolubility of the methyls of MTS in tissue medium, CellTiter 96® Aqueous One Solution is performed with fewer steps than the MTT or INT methods.
(§4) The 96-well plates were uniformly inoculated with appropriate cell density and incubated at 37° C. in carbon dioxide incubator. 24 hours later, the cells were confirmed to be normal under the microscope, and camptothecin drugs were administered. Camptothecin drug was diluted in the medium (initial concentration was 1 uM, 7 times diluted, with 8 concentration points. The last two columns were control group (i.e., cell+medium, no drug treatment) and blank group (i.e., cell-free, only containing medium, for background subtraction). After fully mixing the drug, the drug was added into the corresponding cell hole and incubated at 37° C. in a carbon dioxide incubator for 3 days. After 3 days, 20 ul MTS (Promegm, G3581) were added to each well for 2 h, and a machine reader (from Molecular Device, model: SpectraMAX190) took readings at 490 nM. By detecting the activity of dehydrogenase in mitochondria, IC50 was calculated to evaluate the inhibitory effect of camptothecin on cell proliferation. The corresponding test results of camptothecin chiral derivative IC50 (nM) were as follows: PGP-99 T2

[3] = system: BxPc-3; assay: as above; assay type: cell-based
Experimental: as §1, §2, §3, §4

[4] = system: SK-BR-3; assay: as above; assay type: cell-based
Experimental: as §1, §2, §3, §4

[5] = system: SW620; assay: as above; assay type: cell-based
Experimental: as §1, §2, §3, §4

[6] = system: MDA-MB-468; assay: as above; assay type: cell-based
Experimental: as §1
as §2, with “The reagent contains a new tetrazolium compound [3-(4, 5-dimethylthiazol-2-yl)-5-(3-carboxymethoxyphenyl)-2-(4-sulfophenyl)-2h-Tetrazolium, inner salt; MTS] and an electron coupling agent (phenazine ethosulfate; PES).” left out
as §3
as §4, with “24 hours later, the cells were confirmed to be normal under the microscope, and camptothecin drugs were administered.” left out, “proliferation.” for “proliferation. The corresponding test results of camptothecin chiral derivative IC50 (nM) were as follows: PGP-99 T2”

[7] = Homo sapiens, A-431, 72 h, A431, 3 days, read-out: IC50
[8] = Homo sapiens, 72 h, BxPc-3, 3 days, read-out: IC50
[9] = Homo sapiens, 72 h, SK-BR-3, 3 days, read-out: IC50
[10] = Homo sapiens, SW-620, 72 h, SW620, 3 days, read-out: IC50
[11] = Homo sapiens, MDA-MB-468, 72 h, read-out: IC50

Row | SMILES | logD hydrocarbon water ([1]; LogP) | IC50 [2, 7] [nM] | IC50 [3, 8] [nM] | IC50 [4, 9] [nM] | IC50 [5, 10] [nM] | IC50 [6, 11] [nM] | also measured
1 | CC[C@@]1(O)C(=O)OCc2c1cc1n(c2=O)Cc2c-1nc1cc(F)c(C)c3c1c2[C@H](NC(=O)CO)CC3 [Compound 2] |  |  |  |  |  |  | logD hydrocarbon water ([1]; n-octane (oil) / water, read-out: LogP): 1.8; IC50 ([2]; Homo sapiens, A-431, 72 h): 4.5 nM; IC50 ([3]; Homo sapiens, BXPC-3, 72 h): 4 nM; IC50 ([4]; Homo sapiens, SK-BR-3, 72 h): 1.78 nM; IC50 ([5]; Homo sapiens, SW-620, 72 h): 2.89 nM; IC50 ([6]; Homo sapiens, MDA-MB-468, 72 h): 0.002 nM
2 | CC[C@@]1(O)C(=O)OCc2c1cc1n(c2=O)Cc2c-1nc1cc(F)c(C)c3c1c2[C@H](NC(=O)[C@H](C)O)CC3 [Compound 3] | 1.6 | 4.19 | 3.66 | 15 | 1.29 | 0.22 | 
3 | CC[C@@]1(O)C(=O)OCc2c1cc1n(c2=O)Cc2c-1nc1cc(F)c(C)c3c1c2[C@H](NC(=O)[C@@H](C)O)CC3 [Compound 4] | 1.9 | 3.1 | 2.85 |  | 0.92 |  | 
4 | CC[C@@]1(O)C(=O)OCc2c1cc1n(c2=O)Cc2c-1nc1cc(F)c(C)c3c1c2[C@@H](NC(=O)[C@H](O)C(F)(F)F)CC3 [Compound 5] | 1.9 | 2.83 | 1.73 | 8.49 | 0.866 | 8.91 | 
5 | CC[C@@]1(O)C(=O)OCc2c1cc1n(c2=O)Cc2c-1nc1cc(F)c(C)c3c1c2[C@H](NC(=O)[C@@H](O)C(F)(F)F)CC3 [Compound 6] | 1.9 | 0.689 | 0.416 | 9.1 | 0.093 |  | 
6 | CC[C@@]1(O)C(=O)OCc2c1cc1n(c2=O)Cc2c-1nc1cc(F)c(C)c3c1c2[C@H](NC(=O)[C@@H](O)C1CC1)CC3 [Compound 7] | 1.7 | 0.961 | 0.801 | < 0.01 | 0.894 | < 0.001 | 
7 | CC[C@@]1(O)C(=O)OCc2c1cc1n(c2=O)Cc2c-1nc1cc(F)c(C)c3c1c2[C@H](NC(=O)[C@H](O)C1CC1)CC3 [Compound 8] | 1.8 | 1.84 | 1.1 | < 0.01 | 1.18 | < 0.001 | 
8 | CC[C@@]1(O)C(=O)OCc2c1cc1n(c2=O)Cc2c-1nc1cc(F)c(C)c3c1c2[C@H](NC(=O)C1(CO)CCC1)CC3 [Compound 9] | 1.6 | 1.52 | 1.07 | 7.32 | 1.11 | 0.525 | 
9 | CC[C@@]1(O)C(=O)OCc2c1cc1n(c2=O)Cc2c-1nc1cc(F)c(C)c3c1c2[C@@H](NC(=O)[C@H](C)O)CC3 [Compound 11, reference compound] | 2.5 |  |  |  |  |  | 
10 | CC[C@@]1(O)C(=O)OCc2c1cc1n(c2=O)Cc2c-1nc1cc(F)c(C)c3c1c2[C@@H](NC(=O)[C@@H](C)O)CC3 [Compound 12, reference compound] | 2.5 |  |  |  |  |  | 
11 | CC[C@@]1(O)C(=O)OCc2c1cc1n(c2=O)Cc2c-1nc1cc(F)c(C)c3c1c2[C@@H](NC(=O)[C@H](O)C(F)(F)F)CC3 [Compound 13, reference compound] |  |  |  |  |  |  | LogP [1]: 2.6
12 | CC[C@@]1(O)C(=O)OCc2c1cc1n(c2=O)Cc2c-1nc1cc(F)c(C)c3c1c2[C@@H](NC(=O)[C@@H](O)C(F)(F)F)CC3 [Compound 14, reference compound] | 2.6 |  |  |  |  |  | 
13 | CC[C@@]1(O)C(=O)OCc2c1cc1n(c2=O)Cc2c-1nc1cc(F)c(C)c3c1c2[C@@H](NC(=O)[C@@H](O)C1CC1)CC3 [Compound 15, reference compound] | 2.7 |  |  |  |  |  | 
14 | CC[C@@]1(O)C(=O)OCc2c1cc1n(c2=O)Cc2c-1nc1cc(F)c(C)c3c1c2[C@@H](NC(=O)[C@H](O)C1CC1)CC3 [Compound 16, reference compound] | 2.6 |  |  |  |  |  | 
15 | CC[C@@]1(O)C(=O)OCc2c1cc1n(c2=O)Cc2c-1nc1cc(F)c(C)c3c1c2[C@@H](NC(=O)CO)CC3 [Dxd, reference compound] |  |  |  |  |  |  | IC50 ([2]; A431, 3 days, read-out: IC50): 4.99 nM; IC50 ([3]; BxPc-3, 3 days, read-out: IC50): 3.97 nM; IC50 ([4]; SK-BR-3, 3 days, read-out: IC50): 19.7 nM; IC50 ([5]; SW620, 3 days, read-out: IC50): 1.95 nM; IC50 ([6]; MDA-MB-468, 3 days, read-out: IC50): 10.7 nM

From patent publication US20250276078A1, “Camptothecin Derivative And Ligand-drug Conjugate Thereof” (Baili-Bio (Chengdu) Pharmaceutical Co., Ltd., priority 2020, published 2025)
